Results: patent publication US5641781A, “Topical ophthalmic composition comprising a 2-[4-(azolylbutyl)piperazinylmethyl]benzimidazole derivative, in particular for the treatment of allergic conjunctivitis” (Laboratorios Del Dr. Esteve, S.A., priority 1995, dated 1997)

Test system: guinea pig conjunctiva
Assay: Microvascular permeability in guinea pig conjunctiva induced by histamine (extravasation of Evans blue dye), topical ocular administration
Format: in vivo, guinea pig (male VAF Dunkin/Hartley)
Details: for % change (degree of permeability): topical, vs vehicle; for ED50 (concentration producing 50% inhibition of vascular permeability): Table 3
Experimental: The ocular antihistaminic topical effect of the products which form the subject of the present invention was evaluated by means of a model of microvascular permeability in guinea pig conjunctiva, induced by histamine. In this animal model of ocular antiallergic activity, the power, the fifty percent effective dose and the duration of action are measured.
Microvascular Permeability in Guinea Pig Conjunctiva Induced by Histamine (Extravasation of Evans Blue Dye)
Male VAF Dunkin/Hartley guinea pigs (6 per group) are injected intravenously, into the marginal vein of the ear, with 1.0 ml of Evans blue (1.0 mg/ml). Approximately 15 minutes after injection of the dye, 20 μl of the appropriate concentration of the compound of Example 1 or of the vehicle are applied topically to an eye of each of the animals. 2 minutes, 30 minutes and 6 hours after the topical application, the guinea pigs are anaesthetized and histamine (300 ng/10 μl) is administered to them subconjunctivally. Thirty minutes later the animals are sacrificed by inhalation of CO2 and the area of extravasation of the Evans blue is measured. The area of the blue dye is multiplied by the intensity of the colour, graded from 1 to 6, in order to produce a value of permeability for each animal (Yauni et al., Int. Arch. Allergy Immunol., 1993, 101, 102-106). The values obtained by the groups treated are then compared with those obtained with the group treated with the vehicle using Dunnett's "t" test (Dunnett C. W. "A multiple comparison procedure for comparing treatments with a control", J. Am Star. Assoc 1955, 50, 1096-1121)
This inhibition is observed in a range of concentrations from 0.1% to 0.0001% weight/volume.

In the case of `CCOCCn1c(CN2CCN(CCCCn3cccn3)CC2)nc2ccccc21` [Example 1], the “% change (degree of permeability)” value (0.00001 % (w/v), 30') is reported as -6%, the “% change (degree of permeability)” value (0.00001 % (w/v), 6 h) is reported as -3% and the “% change (degree of permeability)” value (0.0001 % (w/v), 30') is reported as -45%. The “% change (degree of permeability)” value (0.0001 % (w/v), 6 h) was -36%, the “% change (degree of permeability)” value (0.001 % (w/v), 2') was -41% and the “% change (degree of permeability)” value (0.001 % (w/v), 30') was -66%. For the same compound, the “% change (degree of permeability)” value (0.001 % (w/v), 6 h) was -66%, the “% change (degree of permeability)” value (0.01 % (w/v), 2') was -66% and the “% change (degree of permeability)” value (0.01 % (w/v), 30') was -85%. For the same compound, the “% change (degree of permeability)” value (0.01 % (w/v), 6 h) was -91%, the “% change (degree of permeability)” value (0.1 % (w/v), 2') was -75% and the “% change (degree of permeability)” value (0.1 % (w/v), 30') was -100%. For the same compound, the “% change (degree of permeability)” value (0.1 % (w/v), 6 h) was -100%, the “ED50 (concentration producing 50% inhibition of vascular permeability)” value (2') was 0.0024 % w/v and the “ED50 (concentration producing 50% inhibition of vascular permeability)” value (30') was 0.00035 % w/v. For the same compound, the “ED50 (concentration producing 50% inhibition of vascular permeability)” value (6 h) was 0.00043 % w/v, the “ED50 (concentration which produces a 50% inhibition of the vascular permeability)” value (at 2 minutes) was 0.0024 w/v and the “ED50 (concentration which produces a 50% inhibition of the vascular permeability)” value (at 30 minutes) was 0.00035 w/v. The “ED50 (concentration which produces a 50% inhibition of the vascular permeability)” value (at 8 hours) was 0.00043 w/v, the “antihistaminic activity and duration of action (in words)” value (ocular topical administration) was “powerful antihistaminic activity accompanied by an exceptionally long duration of action” and the “inhibition of vascular permeability induced by histamine (in words)” value (ocular topical administration) was “inhibits, significantly and in a dose-dependent manner”.
